# Assay results reported in US20250100993A1, “2-SUBSTITUTED THIAZOLE HSD17B13 INHIBITORS AND USES THEREOF” (Inipharm, Inc., priority 2022, published 2025).
# Molecular target: HSD17B13 (Homo sapiens (Human), UniProt Q7Z5P4)
# Assay: LC/MS estrone detection assay for HSD17B13 activity (estradiol to estrone)
# Type: biochemical
# Conditions: estradiol substrate; for IC50: LC-MS/MS estrone detection; for Ki: LCMS, read-out: HSD17B13 Inhibition_Estradiol Substrate_LCMS: Ki
# Method: The liquid chromatography/mass spectrometry (LC/MS) estrone detection assay monitors the conversion of estradiol to estrone by HSD17B13. This assay was undertaken in a 96 wp format (Eppendorf deep well Plate 96/500) in an 80 μl reaction volume containing: 4 μM of Estradiol (E2; Cayman; Ser. No. 10/006,315), 6 mM NAD+(Sigma; #N0623) and 30 nM HSD17B13 enzyme (in-house; E. coli expressed His-tagged, purified, soluble protein) in a reaction containing 1M potassium phosphate buffer pH 7.4, with 0.5% vehicle (DMSO). Reactions were incubated for 2 hours at 26.5° C., and estradiol (E2) conversion to estrone (E1) was quantitated by LC-MS/MS based analyte detection for both E2 and E1 using LCMS grade reagents.
# Reactions were terminated by the addition of two volumes of acetonitrile (MeCN; LCMS grade; CAS #75/05/8) containing deuterated (D4)-E1 used as internal standard (Clear Synth; #CS-T-54273; 500 ng/mL final concentration). Samples were applied to pre-prepared Bond Elut-C18 extraction cartridges (3 mL; Agilent; Ser. No. 12/102,028), washed and eluted in MeCN. Eluates were dried under nitrogen and re-suspended in 60% methanol (LCMS grade methanol; CAS #67/56/1) before submission for analysis. Aqueous linearity for E2 and E1 were included for quantification.
# Analysis of samples was undertaken on a XBridge BEH C18 column (Waters; #186003033) using 0.1% Diethyl Amine in MeCN (mobile phase A; DEA CAS #109-89-7) and 0.1% Diethyl Amine in milli-Q water (mobile phase B) in a 3 min gradient allowing 25% B. Analytes were detected in negative mode using MRM analysis, with E2 having a RT of 1.85 min and E1 having a RT of 2 min. Activity of the enzyme, in the absence of NAD+, was used to evaluate specificity of conversion. Enzyme activity in the presence of test samples was expressed as a percentage of the uninhibited enzyme activity, and plotted versus inhibitor concentration. Non-linear regression was performed using a four-parameter logistic model and GraphPad Prism software (GraphPad Software, La Jolla, CA). All assessments were undertaken in duplicate evaluations and pooled during extraction process and subsequently injected as duplicates for LC-MS/MS analysis.
# HSD17B13, sequence (Q7Z5P4 20-300): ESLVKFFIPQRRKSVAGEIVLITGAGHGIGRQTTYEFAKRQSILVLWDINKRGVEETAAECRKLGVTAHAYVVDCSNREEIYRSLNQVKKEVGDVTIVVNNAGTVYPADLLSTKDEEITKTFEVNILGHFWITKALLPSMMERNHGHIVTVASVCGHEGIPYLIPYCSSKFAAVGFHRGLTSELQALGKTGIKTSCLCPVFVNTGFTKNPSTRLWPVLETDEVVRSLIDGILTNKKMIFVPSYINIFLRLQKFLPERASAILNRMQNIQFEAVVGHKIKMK
Compound,IC50 [nM],Ki [nM]
"O=C(Nc1scnc1C(=O)N1CCC2(CCCCC2)C1)c1cc(Cl)c(O)c(Cl)n1 [Example 31, N-(4-(2-azaspiro[4.5]decane-2-carbonyl)thiazol-5-yl)-4,6-dichloro-5-hydroxypicolinamide]",1000 to 10000,–
"O=C(Nc1scnc1C(=O)NCC1(F)CC1)c1cc(Cl)c(O)c(Cl)n1 [Example 36, 5-(4,6-dichloro-5-hydroxypicolinamido)-N-((1-fluorocyclopropyl)methyl)thiazole-4-carboxamide]",1000 to 10000,–
"O=C(Nc1scnc1C(=O)NC1CCC2(CC1)CNC2)c1cc(Cl)c(O)c(Cl)n1 [Example 37, 5-(4,6-dichloro-5-hydroxypicolinamido)-N-(2-azaspiro[3.5]nonan-7-yl)thiazole-4-carboxamide]",> 10000,–
"O=C(Nc1scnc1C(=O)N1CCC(C(F)(F)F)CC1)c1cc(Cl)c(O)c(Cl)n1 [Example 44, 4,6-dichloro-5-hydroxy-N-(4-(4-(trifluoromethyl)piperidine-1-carbonyl)thiazol-5-yl)picolinamide]",500 to 1000,–
"Cn1cc(C(=O)NCCC(C)(C)C)c(NC(=O)c2cc(Cl)c(O)c(Cl)c2)n1 [Example 53, 3-(3,5-dichloro-4-hydroxybenzamido)-N-(3,3-dimethylbutyl)-1-methyl-1H-pyrazole-4-carboxamide]",500 to 1000,–
"O=C(Nc1nn(C2CC2)cc1C(=O)NCc1ccccc1C(F)(F)F)c1cc(Cl)c(O)c(Cl)n1 [Example 54, 4,6-dichloro-N-(1-cyclopropyl-4-((2-(trifluoromethyl)benzyl)carbamoyl)-1H-pyrazol-3-yl)-5-hydroxypicolinamide]",1000 to 10000,–
"O=C(Nc1nn(C(F)F)cc1C(=O)NCc1ccccc1C(F)(F)F)c1cc(Cl)c(O)c(Cl)c1 [Example 55, 3-(3,5-dichloro-4-hydroxybenzamido)-1-(difluoromethyl)-N-(2-(trifluoromethyl)benzyl)-1H-pyrazole-4-carboxamide]",100 to 500,–
"O=C(Nc1cccc2c1c(=O)n(Cc1ccccc1C(F)(F)F)c(=O)n2C1CC1)c1cc(Cl)c(O)c(Cl)n1 [Example 56, 4,6-dichloro-N-(1-cyclopropyl-2,4-dioxo-3-(2-(trifluoromethyl)benzyl)-1,2,3,4-tetrahydroquinazolin-5-yl)-5-hydroxypicolinamide]",500 to 1000,–
O=C(Nc1sc(-c2cc[nH]n2)nc1C(=O)NCc1ccccc1C(F)(F)F)c1cc(Cl)c(O)c(Cl)n1 [Example 71],–,≤ 50
O=C(Nc1sc(-c2ccccc2)nc1C(=O)NCC(F)(F)F)c1cc(Cl)c(O)c(Cl)n1 [Example 72],–,100 to 500
O=C(Nc1sc(-c2ccc[nH]c2=O)nc1C(=O)NCc1ccccc1C(F)(F)F)c1cc(Cl)c(O)c(Cl)n1 [Example 74],–,≤ 50
O=C(Nc1sc(-c2cncc(F)c2)nc1C(=O)NCc1ccccc1C(F)(F)F)c1cc(Cl)c(O)c(Cl)c1 [Example 75],–,≤ 50
O=C(Nc1sc(-c2cncc(F)c2)nc1C(=O)NCc1ccccc1C(F)(F)F)c1cc(Cl)c(O)c(Cl)n1 [Example 76],–,≤ 50
O=C(Nc1sc(-c2ccc[nH]c2=O)nc1C(=O)NCc1ccccc1C(F)(F)F)c1cc(Cl)c(O)c(Cl)c1 [Example 77],–,≤ 50

# Further lines, results first:
IC50 [nM],Ki [nM],Compound
100 to 500,–,"Cc1nsc(NC(=O)c2cc(Cl)c(O)c(Cl)n2)c1C(=O)NCc1ccccc1OC(F)(F)F [Example 29, 5-(4,6-dichloro-5-hydroxypicolinamido)-3-methyl-N-(2-(trifluoromethoxy)benzyl)isothiazole-4-carboxamide]"
100 to 500,–,"O=C(Nc1scnc1C(=O)NCC12CC3CC(CC(C3)C1)C2)c1cc(Cl)c(O)c(Cl)n1 [Example 30, N-(adamantan-1-ylmethyl)-5-(4,6-dichloro-5-hydroxypicolinamido)thiazole-4-carboxamide]"
≤ 100,–,"O=C(Nc1scnc1C(=O)NC1(c2ccccc2)CCC1)c1cc(Cl)c(O)c(Cl)n1 [Example 32, 5-(4,6-dichloro-5-hydroxypicolinamido)-N-(1-phenylcyclobutyl)thiazole-4-carboxamide]"
100 to 500,–,"O=C(Nc1scnc1C(=O)NCc1c(F)cccc1F)c1cc(Cl)c(O)c(Cl)n1 [Example 33, 5-(4,6-dichloro-5-hydroxypicolinamido)-N-(2,6-difluorobenzyl)thiazole-4-carboxamide]"
100 to 500,–,"CC(C)(C)CCNC(=O)c1ncsc1NC(=O)c1cc(Cl)c(O)c(Cl)n1 [Example 35, 5-(4,6-dichloro-5-hydroxypicolinamido)-N-(3,3-dimethylbutyl)thiazole-4-carboxamide]"
≤ 100,–,"Cc1nsc(NC(=O)c2cc(Cl)c(O)c(Cl)n2)c1C(=O)NCc1ccccc1C(F)(F)F [Example 38, 5-(4,6-dichloro-5-hydroxypicolinamido)-3-methyl-N-(2-(trifluoromethyl)benzyl)isothiazole-4-carboxamide]"
100 to 500,–,"CC(C)CCNC(=O)c1ncsc1NC(=O)c1cc(Cl)c(O)c(Cl)n1 [Example 39, 5-(4,6-dichloro-5-hydroxypicolinamido)-N-isopentylthiazole-4-carboxamide]"
≤ 100,–,"O=C(Nc1scnc1C(=O)NC12C[C@H]3C[C@@H](C1)C[C@@H](C2)C3)c1cc(Cl)c(O)c(Cl)n1 [Example 40, N-((3s,5s,7s)-adamantan-1-yl)-5-(4,6-dichloro-5-hydroxypicolinamido)thiazole-4-carboxamide]"
100 to 500,–,"O=C(Nc1scnc1C(=O)NCc1ccc2c(c1)OCO2)c1cc(Cl)c(O)c(Cl)n1 [Example 41, N-(benzo[d][1,3]dioxol-5-ylmethyl)-5-(4,6-dichloro-5-hydroxypicolinamido)thiazole-4-carboxamide]"
100 to 500,–,"CS(=O)(=O)c1ccccc1CNC(=O)c1ncsc1NC(=O)c1cc(Cl)c(O)c(Cl)n1 [Example 42, 5-(4,6-dichloro-5-hydroxypicolinamido)-N-(2-(methylsulfonyl)benzyl)thiazole-4-carboxamide]"
100 to 500,–,"O=C(Nc1scnc1C(=O)NC1CCOc2ccccc21)c1cc(Cl)c(O)c(Cl)n1 (stereo not drawn) [Example 43, N-(chroman-4-yl)-5-(4,6-dichloro-5-hydroxypicolinamido)thiazole-4-carboxamide]"
100 to 500,–,"CC(C)(C)CCNC(=O)c1ncsc1NC(=O)c1cc(Cl)c(O)c(Cl)c1 [Example 46, 5-(3,5-dichloro-4-hydroxybenzamido)-N-(3,3-dimethylbutyl)thiazole-4-carboxamide]"
100 to 500,–,"CC(C)n1cc(C(=O)NCc2ccccc2C(F)(F)F)c(NC(=O)c2cc(Cl)c(O)c(Cl)n2)n1 [Example 48, 4,6-dichloro-5-hydroxy-N-(1-isopropyl-4-((2-(trifluoromethyl)benzyl)carbamoyl)-1H-pyrazol-3-yl)picolinamide]"
100 to 500,–,"O=C(Nc1nn(CC(F)(F)F)cc1C(=O)NCc1ccccc1C(F)(F)F)c1cc(Cl)c(O)c(Cl)c1 [Example 49, 3-(3,5-dichloro-4-hydroxybenzamido)-1-(2,2,2-trifluoroethyl)-N-(2-(trifluoromethyl)benzyl)-1H-pyrazole-4-carboxamide]"
100 to 500,–,"O=C(Nc1nn(CC(F)(F)F)cc1C(=O)NCc1ccccc1C(F)(F)F)c1cc(Cl)c(O)c(Cl)n1 [Example 50, 4,6-dichloro-5-hydroxy-N-(1-(2,2,2-trifluoroethyl)-4-((2-(trifluoromethyl)benzyl)carbamoyl)-1H-pyrazol-3-yl)picolinamide]"
100 to 500,–,"O=C(Nc1sc(-c2cccnc2)nc1C(=O)NCc1ccccc1C(F)(F)F)c1cc(Cl)c(O)c(Cl)n1 [Example 51, 5-(4,6-dichloro-5-hydroxypicolinamido)-2-(pyridin-3-yl)-N-(2-(trifluoromethyl)benzyl)thiazole-4-carboxamide]"
100 to 500,–,"O=C(Nc1cccnc1C(=O)NCc1ccccc1OC(F)(F)F)c1cc(Cl)c(O)c(Cl)n1 [Example 52, 4,6-dichloro-5-hydroxy-N-(2-((2-(trifluoromethoxy)benzyl)carbamoyl)pyridin-3-yl)picolinamide]"
≤ 100,–,"O=C(Nc1ccc(-c2ccccc2)nc1C(=O)NCc1ccccc1OC(F)(F)F)c1cc(Cl)c(O)c(Cl)c1 [Example 57, 3-(3,5-dichloro-4-hydroxybenzamido)-6-phenyl-N-(2-(trifluoromethoxy)benzyl)picolin amide]"
≤ 100,–,"O=C(Nc1ccc(-c2ccccc2)nc1C(=O)NCc1ccccc1OC(F)(F)F)c1cc(Cl)c(O)c(Cl)n1 [Example 58, 4,6-dichloro-5-hydroxy-N-(6-phenyl-2-((2-(trifluoromethoxy)benzyl)carbamoyl)pyridin-3-yl)picolinamide]"
